Values after ≈ are worked out from the molar mass of the structure shown.
Tested on: methicillin-resistant Staphylococcus aureus (MRSA) (ATCC BAA-44)
Assay: MIC assay, broth microdilution with resazurin
Type: cell-based
Settings: Mueller Hinton broth, 20-44 h at 37° C.
Protocol: Antimicrobial assay antimicrobial activities of the polymers were determined by the minimal inhibitory concentration (MIC) assay. MIC of Mycobacterium smegmatis (ATCC 700084), Shigella flexneri (ATCC 9199), Staphylococcus aureus (ATCC 14775) and methicillin-resistant Staphylococcus aureus (MRSA) (ATCC BAA-44) were determined by the standard broth microdilution method with slight modification. In brief, different bacteria were grown in either Mueller Hinton broth (MHB) or 7H9 broth (M. smegmatis) overnight at 37° C. Next day, the cells were first OD600 adjusted to 0.1 and then further diluted 1:100 in the respective media and 50 μL (˜10^5 CFU) is added to 96 well-microplate wells containing 50 μL serial dilutions of the polymers. The plates were incubated for 20-44 h at 37° C. MIC is defined as the lowest concentration of the polymer that inhibits the visual growth of the bacteria. To aid in determining the visual growth of bacteria, resazurin, a red-ox dye is added to the wells at a final concentration of 0.02% and incubated for 4-8 h at 37° C. In the presence of viable cells, resazurin (blue) is reduced to resorfurin (pink) along with an increase in fluorescence. MIC was calculated as the lowest concentration of the polymer that prevented the color change and reduced the fluorescence (Ex 540, Em 590 nm) by 90% when compared to the control wells containing no inhibitor. […]

- MIC MRSA: 20 µg/mL (≈ 60.4 µM)
SMILES: O=C(O)c1cn(C2CC2)c2cc(N3CCNCC3)c(F)cc2c1=O [Ciprofloxacin]
